# System: Echinochloa crus-galli
# Experiment: Test Example 2: herbicidal effect test by treatment during growing period in paddy rice cultivation (seven days after seeding)
# Type: in vivo
# Details: 120 g/10a active ingredient, assessed 14 days after treatment, dry weight vs untreated area
# Summary of the method: (§1)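 Greenhouse flooded-pot test, seeds sown in puddled paddy soil; emulsion applied into water 7 d after seeding, 120 g a.i./10 a. Dry-weight-based herbicidal rate at 14 d, n=2.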
row,SMILES,Herbicidal rate (%) Echinochloa crus-galli
1,CCC(=O)N(c1ccccc1Cc1c(C)n(C(C)COC)oc1=O)S(=O)(=O)C(F)(F)F (stereo not drawn) [Compound 1-319],90%
2,CCC(CC)n1oc(=O)c(Cc2ccccc2N(C(=O)C2CC2)S(=O)(=O)C(F)(F)F)c1C [Compound 1-405],90%
3,CCOC(=O)N(c1ccccc1Cc1c(C)n(C(C)(C)C)oc1=O)S(=O)(=O)C(F)(F)F [Compound 1-604],90%

# System: broad leaf weeds (Lindernia pyxidaria and Monochoria vaginalis)
# Experiment: as above
# Type: in vivo
# Details: Lindernia pyxidaria, 120 g/10a active ingredient, assessed 14 days after treatment, dry weight vs untreated area
# Summary of the method: as §1
row,SMILES,Herbicidal rate (%) Lindernia pyxidaria
1,CCC(=O)N(c1ccccc1Cc1c(C)n(C(C)COC)oc1=O)S(=O)(=O)C(F)(F)F (stereo not drawn) [Compound 1-319],90%
2,CCC(CC)n1oc(=O)c(Cc2ccccc2N(C(=O)C2CC2)S(=O)(=O)C(F)(F)F)c1C [Compound 1-405],90%
3,CCOC(=O)N(c1ccccc1Cc1c(C)n(C(C)(C)C)oc1=O)S(=O)(=O)C(F)(F)F [Compound 1-604],90%

# Same assay, conditions: Monochoria vaginalis, 120 g/10a active ingredient, assessed 14 days after treatment, dry weight vs untreated area
row,SMILES,Herbicidal rate (%) Monochoria vaginalis
1,CCC(=O)N(c1ccccc1Cc1c(C)n(C(C)COC)oc1=O)S(=O)(=O)C(F)(F)F (stereo not drawn) [Compound 1-319],90%
2,CCC(CC)n1oc(=O)c(Cc2ccccc2N(C(=O)C2CC2)S(=O)(=O)C(F)(F)F)c1C [Compound 1-405],90%
3,CCOC(=O)N(c1ccccc1Cc1c(C)n(C(C)(C)C)oc1=O)S(=O)(=O)C(F)(F)F [Compound 1-604],90%

# System: Scirpus juncoides
# Experiment: as above
# Type: in vivo
# Details: 120 g/10a active ingredient, assessed 14 days after treatment, dry weight vs untreated area
# Summary of the method: as §1
row,SMILES,Herbicidal rate (%) Scirpus juncoides
1,CCC(=O)N(c1ccccc1Cc1c(C)n(C(C)COC)oc1=O)S(=O)(=O)C(F)(F)F (stereo not drawn) [Compound 1-319],90%
2,CCC(CC)n1oc(=O)c(Cc2ccccc2N(C(=O)C2CC2)S(=O)(=O)C(F)(F)F)c1C [Compound 1-405],90%
3,CCOC(=O)N(c1ccccc1Cc1c(C)n(C(C)(C)C)oc1=O)S(=O)(=O)C(F)(F)F [Compound 1-604],90%

# System: Echinochloa crus-galli
# Experiment: Test Example 4: herbicidal effect test by treatment of leave and stem in dry field farming (seven days after seeding)
# Type: in vivo
# Details: 120 g/10a active ingredient; emulsion sprayed seven days after seeding; evaluated 14 days after treatment
# Summary of the method: (§2)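 Twenty seeds per species were mixed into the top 1 cm of alluvial soil in 36 cm^2 pots; emulsions were sprayed seven days after seeding at 100 L per 10 ares (120 g active ingredient per 10 ares). Herbicidal rate (%) = {1 − treated/untreated mean dry weight} × 100, 14 days after treatment, duplicate.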
row,SMILES,"herbicidal effect (herbicidal rate), Echinochloa crus-galli"
1,CCC(=O)N(c1ccccc1Cc1c(C)n(C(C)COC)oc1=O)S(=O)(=O)C(F)(F)F (stereo not drawn) [Compound 1-319],90%
2,CCC(CC)n1oc(=O)c(Cc2ccccc2N(C(=O)C2CC2)S(=O)(=O)C(F)(F)F)c1C [Compound 1-405],90%
3,CCOC(=O)N(c1ccccc1Cc1c(C)n(C(C)(C)C)oc1=O)S(=O)(=O)C(F)(F)F [Compound 1-604],90%

# System: Amaranthus viridis
# Experiment: as above
# Type: in vivo
# Details: 120 g/10a active ingredient; emulsion sprayed seven days after seeding; evaluated 14 days after treatment
# Summary of the method: as §2
row,SMILES,"herbicidal effect (herbicidal rate), Amaranthus viridis"
1,CCC(=O)N(c1ccccc1Cc1c(C)n(C(C)COC)oc1=O)S(=O)(=O)C(F)(F)F (stereo not drawn) [Compound 1-319],40%
2,CCC(CC)n1oc(=O)c(Cc2ccccc2N(C(=O)C2CC2)S(=O)(=O)C(F)(F)F)c1C [Compound 1-405],40%
3,CCOC(=O)N(c1ccccc1Cc1c(C)n(C(C)(C)C)oc1=O)S(=O)(=O)C(F)(F)F [Compound 1-604],40%

# System: southern crabgrass
# Experiment: as above
# Type: in vivo
# Details: 120 g/10a active ingredient; emulsion sprayed seven days after seeding; evaluated 14 days after treatment
# Summary of the method: as §2
row,SMILES,"herbicidal effect (herbicidal rate), southern crabgrass"
1,CCC(=O)N(c1ccccc1Cc1c(C)n(C(C)COC)oc1=O)S(=O)(=O)C(F)(F)F (stereo not drawn) [Compound 1-319],90%
2,CCC(CC)n1oc(=O)c(Cc2ccccc2N(C(=O)C2CC2)S(=O)(=O)C(F)(F)F)c1C [Compound 1-405],90%
3,CCOC(=O)N(c1ccccc1Cc1c(C)n(C(C)(C)C)oc1=O)S(=O)(=O)C(F)(F)F [Compound 1-604],90%

# System: Chenopodium album
# Experiment: as above
# Type: in vivo
# Details: 120 g/10a active ingredient; emulsion sprayed seven days after seeding; evaluated 14 days after treatment
# Summary of the method: as §2
row,SMILES,"herbicidal effect (herbicidal rate), Chenopodium album"
1,CCC(=O)N(c1ccccc1Cc1c(C)n(C(C)COC)oc1=O)S(=O)(=O)C(F)(F)F (stereo not drawn) [Compound 1-319],40%
2,CCC(CC)n1oc(=O)c(Cc2ccccc2N(C(=O)C2CC2)S(=O)(=O)C(F)(F)F)c1C [Compound 1-405],40%
3,CCOC(=O)N(c1ccccc1Cc1c(C)n(C(C)(C)C)oc1=O)S(=O)(=O)C(F)(F)F [Compound 1-604],40%

# System: Echinochloa crus-galli
# Experiment: Test Example 3: herbicidal effect test by treatment of dry field farming soil (one day after seeding)
# Type: in vivo
# Details: 120 g/10a active ingredient, evaluated 14 days after treatment
# Summary of the method: (§3)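 Compound emulsions are sprayed on the soil surface one day after sowing (120 g a.i. per 10 ares) before weeds emerge. Effect is expressed as percent dry-weight reduction versus untreated controls 14 days post-treatment.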
row,SMILES,"herbicidal rate, Echinochloa crus-galli"
1,CCC(=O)N(c1ccccc1Cc1c(C)n(C(C)COC)oc1=O)S(=O)(=O)C(F)(F)F (stereo not drawn) [Compound 1-319],90%
2,CCC(CC)n1oc(=O)c(Cc2ccccc2N(C(=O)C2CC2)S(=O)(=O)C(F)(F)F)c1C [Compound 1-405],90%
3,CCOC(=O)N(c1ccccc1Cc1c(C)n(C(C)(C)C)oc1=O)S(=O)(=O)C(F)(F)F [Compound 1-604],90%

# System: Amaranthus viridis
# Experiment: as above
# Type: in vivo
# Details: 120 g/10a active ingredient, evaluated 14 days after treatment
# Summary of the method: as §3
row,SMILES,"herbicidal rate, Amaranthus viridis"
1,CCC(=O)N(c1ccccc1Cc1c(C)n(C(C)COC)oc1=O)S(=O)(=O)C(F)(F)F (stereo not drawn) [Compound 1-319],90%
2,CCC(CC)n1oc(=O)c(Cc2ccccc2N(C(=O)C2CC2)S(=O)(=O)C(F)(F)F)c1C [Compound 1-405],90%
3,CCOC(=O)N(c1ccccc1Cc1c(C)n(C(C)(C)C)oc1=O)S(=O)(=O)C(F)(F)F [Compound 1-604],90%

# System: southern crabgrass
# Experiment: as above
# Type: in vivo
# Details: 120 g/10a active ingredient, evaluated 14 days after treatment
# Summary of the method: as §3
row,SMILES,"herbicidal rate, southern crabgrass"
1,CCC(=O)N(c1ccccc1Cc1c(C)n(C(C)COC)oc1=O)S(=O)(=O)C(F)(F)F (stereo not drawn) [Compound 1-319],90%
2,CCC(CC)n1oc(=O)c(Cc2ccccc2N(C(=O)C2CC2)S(=O)(=O)C(F)(F)F)c1C [Compound 1-405],90%
3,CCOC(=O)N(c1ccccc1Cc1c(C)n(C(C)(C)C)oc1=O)S(=O)(=O)C(F)(F)F [Compound 1-604],90%

# System: Chenopodium album
# Experiment: as above
# Type: in vivo
# Details: 120 g/10a active ingredient, evaluated 14 days after treatment
# Summary of the method: as §3
row,SMILES,"herbicidal rate, Chenopodium album"
1,CCC(=O)N(c1ccccc1Cc1c(C)n(C(C)COC)oc1=O)S(=O)(=O)C(F)(F)F (stereo not drawn) [Compound 1-319],90%
2,CCC(CC)n1oc(=O)c(Cc2ccccc2N(C(=O)C2CC2)S(=O)(=O)C(F)(F)F)c1C [Compound 1-405],90%
3,CCOC(=O)N(c1ccccc1Cc1c(C)n(C(C)(C)C)oc1=O)S(=O)(=O)C(F)(F)F [Compound 1-604],90%

# System: Echinochloa crus-galli
# Experiment: Test Example 1: herbicidal effect test by treatment of rice paddy soil (immediately after seeding)
# Type: in vivo
# Details: 120 g/10a active ingredient, dry weight vs untreated area, 14 days after treatment
# Summary of the method: (§4)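 Flooded paddy pot test in a glass greenhouse: emulsion diluted in water, dropped at 120 g a.i. per 10 ares just after sowing, water depth kept about 3 cm. Dry-weight reduction relative to untreated plants is scored at 14 days.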
row,SMILES,Herbicidal rate (%) Echinochloa crus-galli
1,CCC(=O)N(c1ccccc1Cc1c(C)n(C(C)COC)oc1=O)S(=O)(=O)C(F)(F)F (stereo not drawn) [Compound 1-319],90%
2,CCC(CC)n1oc(=O)c(Cc2ccccc2N(C(=O)C2CC2)S(=O)(=O)C(F)(F)F)c1C [Compound 1-405],90%
3,CCOC(=O)N(c1ccccc1Cc1c(C)n(C(C)(C)C)oc1=O)S(=O)(=O)C(F)(F)F [Compound 1-604],90%

# System: broad leaf weeds (Lindernia pyxidaria and Monochoria vaginalis)
# Experiment: as above
# Type: in vivo
# Details: Lindernia pyxidaria, 120 g/10a active ingredient, dry weight vs untreated area, 14 days after treatment
# Summary of the method: as §4
row,SMILES,Herbicidal rate (%) Lindernia pyxidaria
1,CCC(=O)N(c1ccccc1Cc1c(C)n(C(C)COC)oc1=O)S(=O)(=O)C(F)(F)F (stereo not drawn) [Compound 1-319],90%
2,CCC(CC)n1oc(=O)c(Cc2ccccc2N(C(=O)C2CC2)S(=O)(=O)C(F)(F)F)c1C [Compound 1-405],90%
3,CCOC(=O)N(c1ccccc1Cc1c(C)n(C(C)(C)C)oc1=O)S(=O)(=O)C(F)(F)F [Compound 1-604],90%

# Same assay, conditions: Monochoria vaginalis, 120 g/10a active ingredient, dry weight vs untreated area, 14 days after treatment
row,SMILES,Herbicidal rate (%) Monochoria vaginalis
1,CCC(=O)N(c1ccccc1Cc1c(C)n(C(C)COC)oc1=O)S(=O)(=O)C(F)(F)F (stereo not drawn) [Compound 1-319],90%
2,CCC(CC)n1oc(=O)c(Cc2ccccc2N(C(=O)C2CC2)S(=O)(=O)C(F)(F)F)c1C [Compound 1-405],90%
3,CCOC(=O)N(c1ccccc1Cc1c(C)n(C(C)(C)C)oc1=O)S(=O)(=O)C(F)(F)F [Compound 1-604],90%

# System: Scirpus juncoides
# Experiment: as above
# Type: in vivo
# Details: 120 g/10a active ingredient, dry weight vs untreated area, 14 days after treatment
# Summary of the method: as §4
row,SMILES,Herbicidal rate (%) Scirpus juncoides
1,CCC(=O)N(c1ccccc1Cc1c(C)n(C(C)COC)oc1=O)S(=O)(=O)C(F)(F)F (stereo not drawn) [Compound 1-319],90%
2,CCC(CC)n1oc(=O)c(Cc2ccccc2N(C(=O)C2CC2)S(=O)(=O)C(F)(F)F)c1C [Compound 1-405],90%
3,CCOC(=O)N(c1ccccc1Cc1c(C)n(C(C)(C)C)oc1=O)S(=O)(=O)C(F)(F)F [Compound 1-604],90%
